Experimental data from patent publication US20110217265A1, “Screening for Inhibitors of HCV Amphipathic Helix (AH) Function” (priority 2008, published 2011).

Experiments:
Huh7.5 cells = assay: Alamar Blue cell viability assay; assay type: cell-based, human; settings: in parallel with replication assays, 72 hr
genotype 1b 4BAH2 = genotype 1b 4BAH2 (Hepatitis C virus genotype 1b, UniProt Q9WMX2); assay: QCM-D of 4BAH2 membrane association with POPC bilayer, genotype 1b; assay type: binding; set-up: purchased Anaspec Corporation (San Jose, Calif., USA)
Chain of genotype 1b 4BAH2 (Q9WMX2 1754-1776): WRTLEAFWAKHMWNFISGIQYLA
Description: (§1) Quartz Crystal Microbalance-Dissipation (QCM-D). Adsorption kinetics and the properties of the adsorbed layer were studied using a Q-Sense E4, multiple channel system (Q-Sense AB, Gothenburg, Sweden). The samples are introduced using a peristaltic pump with flow rate of 0.1 mL·min^−1. AT-cut quartz crystals (Q-Sense) of 14 mm in diameter coated with a SiOx layer were used for all vesicle interaction and adsorption experiments. Each QCM crystal was treated with oxygen plasma at ˜80 watts for 3 min prior to measurement (March Plasmod Plasma Etcher, March Instruments, California, USA). Each crystal was initially driven near its resonance frequency as indicated by a maximum in the current. To capture the characteristic dissipation, the drive circuit was short-circuited and the exponential decay of the crystal oscillation was recorded and analyzed, yielding the frequency and dissipation changes at 5, 15, 25, 35, 45, 55, and 65 MHz. The temperature of the Q-Sense cell was set at 25.0° C. and accurately controlled by a Peltier element in the cell with fluctuation smaller than ±0.05° C. All experiments were repeated at least three times, with a standard deviation of less than 2%.

genotype 2a 4BAH2 [1] = biological target: T1, genotype 2a 4BAH2 (Hepatitis C virus genotype 2a, UniProt Q99IB8); assay: DLS assay of 4BAH2-induced POPC lipid vesicle aggregation, genotype 2a peptide; assay type: biochemical; set-up: purchased Anaspec Corporation (San Jose, Calif., USA); host or cells: chemical synthesis; settings: POPC vesicles
T1 sequence (Q99IB8 1758-1780): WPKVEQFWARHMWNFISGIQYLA
Description: Small Unilamellar Vesicle Preparation. Vesicles of 1-palmitoyl-2-oleoyl-sn-glycero-3-phosphocholine (POPC) (Avanti Polar Lipids, Alabaster, Ala., USA) with well-defined size distributions were prepared by the extrusion method. Throughout the experiments, we used a phosphate buffered saline (PBS) buffer (10 mM, pH 7.5 and 150 mM NaCl) in […] MilliQ water (Millipore, Oregon, USA). Extruded vesicles (referred to simply as vesicles) were prepared in the following manner. Lipid films were prepared by first drying the as-supplied lipids dissolved in chloroform under a gentle stream of nitrogen at room temperature. Then the resulting lipid film was stored under vacuum for at least 5 hr in order to remove residual chloroform. Vesicles were prepared by first swelling the lipid film in aqueous solution then vortexing periodically for 5 min. […]
Dynamic Light Scattering. Dynamic light scattering (DLS) was performed using a doubled, Nd:YAG laser (model 532 DPSS, Coherent Laser Group, Santa Clara, Calif.) with a wavelength, λ, of […] and a Brookhaven digital autocorrelator, and analyzed by digital autocorrelator software (Brookhaven Instruments Corporation, New York, USA). […] DLS results were analyzed to give an intensity-weighted size distribution using a discrete Laplace inversion routine. […]

genotype 2a 4BAH2 [2] = biological target: T1, genotype 2a 4BAH2; assay: QCM-D of 4BAH2 membrane association with POPC bilayer, genotype 2a; assay type: binding; set-up: purchased Anaspec Corporation (San Jose, Calif., USA)
Description: as §1

SMILES: CC(C)CN(C)c1nc(N)c(C(=O)NC(=N)N)nc1Cl [C4, 3-amino-N-carbamimidoyl-6-chloro-5-(isobutyl(methyl)amino)pyrazine-2-carboxamide]
- Cellular toxicity (Alamar Blue viability) (Huh7.5 cells): No significant cellular toxicity
- Effect on genotype 1b 4BAH2 membrane association (QCM-D) (genotype 1b 4BAH2): no effect
- Inhibition of genotype 2a 4BAH2-induced vesicle aggregation (DLS) (genotype 2a 4BAH2 [1]): essentially abrogated
- Effect on genotype 2a 4BAH2 membrane association (QCM-D) (genotype 2a 4BAH2 [2]): no effect
